Assay [1] has as its system hair follicles / hair growth in depilated C57BL/6 mice. The assay can be described thus: Hair growth in C57BL/6 mice after rosin/paraffin depilation. Type of assay: in vivo. The method, then:
SPF grade C57BL/6 mice were selected and numbered according to their weight. They were randomly divided into compound group 1 (skin applied with 2% R-IMPP solution), compound group 2 (skin applied with 2% PF 06446846 solution), and compound group 3 (skin applied with 2% SBC-115076 solution), compound group 4 (skin applied with 2% SBC-110736 solution), monoclonal antibody group 1 (PCSK9subcutaneous injection monoclonal antibody ab81041, 5 mg/kg·d), monoclonal antibody group 2 (Subcutaneous injection of Evolocumab, 5 mg/kg·d), monoclonal antibody group 3 (subcutaneous injection of Alirocumab, 5 mg/kg·d), PCSK9 RNA interference group-1 (skin applied with 2% PCSK9 small interfering RNA-1 solution), PCSK9 RNA interference Group-2 (skin applied with 2% PCSK9 small interfering RNA-2 solution), PCSK9 RNA interference group-3 (skin applied with 2% PCSK9 small interfering RNA-3 solution), polypeptide group (subcutaneous injection of Abcam company ab32727, 3 mg/kg·d), positive control group (skin applied with 2% minoxidil solution), negative control group (skin applied with 60% ethanol), and model control group (skin applied with 60% ethanol), 10 mice in each group, half male and half female. After the mice were anesthetized with ether, they were coated on the back with a mixture of rosin and paraffin (1:1) after hot melting, and then peeled off after it solidified and hardened. The back of the mouse was cleaned to be hairless and without injuries. The depilation area was about 3 cm×4 cm. From the 2nd day after depilation, the corresponding drugs were applied to the hair removal area, twice a day, 0.5 mL per animal each time, and subcutaneously injected once a week.
From the second day after application, observe the daily color change of the skin on the back of the mice to determine the growth state of the hair follicles and visually observe the hair growth in the depilation area, and score the new hair growth in the depilation area once a day. Five mice in each group were reserved for 40 days of visual observation, and the growth of back hair was recorded.
On the 17th day, five mice in each group were sacrificed by cervical dislocation. The samples were taken from the same part of the back parallel to the spine, fixed with 10% formaldehyde, dehydrated, embedded in paraffin, sectioned, stained with HE, and sealed with neutral gum. Then the histology of hair follicles was observed under light microscope, and morphological staging of hair follicles was performed. According to the international hair cycle scoring method, the hair follicles were scored as follows: 100 points for growth stage VI, 200 points for early regression, 300 points for middle regression, and 400 points for late regression. 50 hair follicles were randomly selected from each mouse, the cycle of the hair follicles in each group was determined, and the average hair cycle score and the percentage of hair follicles in the growth phase VI, early regression, middle regression, and late regression were calculated.

In assay [2] the test system is androgenetic alopecia (SA) rat model. The assay can be described thus: Androgenetic alopecia (SA) rat model induced by testosterone propionate. Type of assay: in vivo, Wistar rats. The method, then: SPF grade Wistar rats were selected and randomly divided into compound group 1 (skin applied with 5% R-IMPP solution), compound group 2 (skin applied with 5% PF 06446846 solution), and compound group 3 (skin applied with 5% SBC-115076 solution), compound group 4 (skin applied with 5% SBC-110736 solution), monoclonal antibody group 1 (subcutaneous injection of PCSK9 monoclonal antibody ab84041, 5 mg/kg·d), monoclonal antibody group 2 (subcutaneous injection of Evolocumab, 5 mg/kg·d), monoclonal antibody group 3 (subcutaneous injection of Alirocumab, 5 mg/kg·d), PCSK9 RNAi inhibitor group-1 (skin applied with 5% PCSK9 small interfering RNA-1 solution), PCSK9 RNAi inhibitor group-2 (skin applied with 5% PCSK9 small interfering RNA-2 solution), PCSK9 RNAi inhibitor group-3 (skin applied with 5% PCSK9 small interfering RNA-3 solution), and polypeptide group (subcutaneous injection of Abcam company ab32727, 3 mg/kg·d), positive control group (skin smeared with 5% minoxidil tincture), negative control group (smeared with 75% ethanol), model control group (smeared with 75% ethanol), 10 rats in each group, half male and half female.
Before the experiment, each rat selected an area of 4 cm×5 cm on the back to remove the hair as the observation area. Except for the negative control group, the rats were subcutaneously injected with testosterone propionate injection [[…]] at the back of the neck, once a day for 60 consecutive days to establish the SA model. […] At the same time, the rats in the corresponding drug group were smeared or subcutaneously injected on the skin of the observation area of the rats in the drug group, smeared 1 ml/(per time), twice a day, with an interval of 8 hours, and administered by subcutaneous injection, once a day. The negative control group and the model control group were smeared with excipient (75% ethanol solution), 1 mL one rat per time, twice a day, for 60 consecutive days.
10 hairs were extracted from the observation area on the back of each rat every 15 days after administration, and the hair length was measured with a vernier caliper. After 60 days of administration, the skin of the experimental observation area was taken for routine tissue dehydration, paraffin embedding, HE staining, and light microscopy to observe the histopathological changes of the rat skin hair follicles and sebaceous glands. Semi-quantitative analysis was carried out in each group. The grading standards are as follows: normal skin dermal tissue cells, subcutaneous hair follicles, and sebaceous glands were marked as “one”; no hyperplasia in the dermis, limited lesions of hair follicles and sebaceous glands, and no subcutaneous inflammation, marked as “±”; no obvious hyperplasia found in the dermis, obviously cystic follicles, no obvious hyperplasia found in the sebaceous glands, and no inflammation is recorded as “+”; segmental hyperplasia of skin and dermis was not obvious, a small number of hair follicles had cystic degeneration, and sebaceous glands had mild hyperplasia and hypertrophy. No obvious inflammation under the skin was recorded as “++”; the skin and dermis tissue cells had segmental hyperplasia of different degrees, some follicles degenerated, the size of the hair follicles was uneven, and there were no cells in the periphery. There was hyperplasia of sebaceous glands, and there were few nuclei in the hyperplasia glands. Individual rats had mild inflammatory hyperplasia under the skin, which was marked as “+++”.

Setting [3] is: hair removal area on the back of mice, after hair removal.

Marks after values point to notes of the source that are not given here.

Experimental findings from patent US20230346773A1, “USE OF PCSK9 INHIBITOR IN PREPARATION OF PRODUCT FOR TREATING MULTIPLE DISEASES” (priority 2020, published 2023) are described below.

Regarding `Nc1cc(N2CCCCC2)nc(N)[n+]1[O-]` [Positive control group, minoxidil], the “percentage of hair follicles in the growth stage VI” value in assay [1] (17th day after hair plucking) is on record as 42%. The “average hair cycle score” value in assay [1] (17th day after hair plucking, 100 points growth stage VI, 200 early, 300 middle, 400 late regression) was 185. In assay [1] (back hair removal area of mice), the “Time from hair growth to the same length as the hair in the non-experimental area” value is 15.77 days, the “Time to grow new hair” value was 7.85 days and the “Time to match the length of hair in the non-experimental area” value is 23.62 days. This compound gave a Black skin duration in assay [1] (hair removal area on the back of mice) of 12.80 days. Besides, in assay [1] (setting [3]), the Skin black-turning time was 6.29* days and the Skin grayish-black-turning time is given as 19.09* days. Moreover, in assay [2] (10 rats, after 60 days, few follicles with cystic degeneration, sebaceous glands mild hyperplasia and hypertrophy), the “Skin hair follicles and sebaceous glands: number of rats graded ++” value came to 2. In addition, in assay [2] (10 rats, after 60 days, no hyperplasia in the dermis, limited lesions of hair follicles and sebaceous glands, no subcutaneous inflammation), the “Skin hair follicles and sebaceous glands: number of rats graded ±” value is given as 3. The “Skin hair follicles and sebaceous glands: number of rats graded +” value in assay [2] (10 rats, after 60 days, no obvious hyperplasia in dermis, obviously cystic follicles, no inflammation) is given as 5. The “Skin hair follicles and sebaceous glands: number of rats graded −” value in assay [2] (10 rats, after 60 days, normal skin dermal tissue cells, subcutaneous hair follicles and sebaceous glands) was found to be 0. Moreover, in assay [2] (10 rats, after 60 days, segmental hyperplasia, degenerated follicles, hyperplasia of sebaceous glands, mild inflammatory hyperplasia), the “Skin hair follicles and sebaceous glands: number of rats graded +++” value stood at 0. The “15 d hair length” value in assay [2] (rats, 15 days after administration) is 7.9* mm. For the same compound, the “30 d hair length” value in assay [2] (rats, 30 days after administration) is on record as 8.4* mm. Further, in assay [2] (rats, 45 days after administration), the “45 d hair length” value is reported as 12.8* mm. Also, the “60 d hair length” value in assay [2] (rats, 60 days after administration) is 14.9* mm.
